Tests used:
M14 = assay: NCI human tumor cell panel: M14 (Melanoma); format: cell-based
SN12C = assay: NCI human tumor cell panel: SN12C (Renal Cancer); format: cell-based
DU-145 = assay: NCI human tumor cell panel: DU-145 (Prostate Cancer); format: cell-based
HCT-15 = assay: NCI human tumor cell panel: HCT-15 (Colon Cancer); format: cell-based
NCI-H23 = assay: NCI human tumor cell panel: NCI-H23 (Non-Small Cell Lung Cancer); format: cell-based
SF-268 = assay: NCI human tumor cell panel: SF-268 (CNS Cancer); format: cell-based
CCRF-CEM = assay: NCI human tumor cell panel: CCRF-CEM (Leukemia); format: cell-based
CAKI-1 = assay: NCI human tumor cell panel: CAKI-1 (Renal Cancer); format: cell-based
HOP-62 = assay: NCI human tumor cell panel: HOP-62 (Non-Small Cell Lung Cancer); format: cell-based
[1] = tested on: panel of sixty different human tumor cell lines; assay: NCI human tumor cell panel: whole panel (mean graph summary); conditions: whole panel
MDA-N = assay: NCI human tumor cell panel: MDA-N (Breast Cancer); format: cell-based
HL-60(TB) = assay: NCI human tumor cell panel: HL-60(TB) (Leukemia); format: cell-based
HT29 = assay: NCI human tumor cell panel: HT29 (Colon Cancer); format: cell-based; conditions: HT-29, HT29, read-out: Log10 TGI (converted)
COLO 205 = assay: NCI human tumor cell panel: COLO 205 (Colon Cancer); format: cell-based
T-47D = assay: NCI human tumor cell panel: T-47D (Breast Cancer); format: cell-based; conditions: T47D
SK-MEL-2 = assay: NCI human tumor cell panel: SK-MEL-2 (Melanoma); format: cell-based
U251 = assay: NCI human tumor cell panel: U251 (CNS Cancer); format: cell-based
MDA-MB-231/ATCC = assay: NCI human tumor cell panel: MDA-MB-231/ATCC (Breast Cancer); format: cell-based; conditions: Homo sapiens, MDA-MB-231, MDA-MB-231/ATCC
SK-OV-3 = assay: NCI human tumor cell panel: SK-OV-3 (Ovarian Cancer); format: cell-based; conditions: SK-OV-3, read-out: Log10 GI50 (converted)
HCC-2998 = assay: NCI human tumor cell panel: HCC-2998 (Colon Cancer); format: cell-based
MCF7 = assay: NCI human tumor cell panel: MCF7 (Breast Cancer); format: cell-based
UACC-62 = assay: NCI human tumor cell panel: UACC-62 (Melanoma); format: cell-based
SW-620 = assay: NCI human tumor cell panel: SW-620 (Colon Cancer); format: cell-based
MOLT-4 = assay: NCI human tumor cell panel: MOLT-4 (Leukemia); format: cell-based
HCT-116 = assay: NCI human tumor cell panel: HCT-116 (Colon Cancer); format: cell-based
RXF-393 = assay: NCI human tumor cell panel: RXF-393 (Renal Cancer); format: cell-based
NCI-H226 = assay: NCI human tumor cell panel: NCI-H226 (Non-Small Cell Lung Cancer); format: cell-based
SK-MEL-5 = assay: NCI human tumor cell panel: SK-MEL-5 (Melanoma); format: cell-based; conditions: SK-MEL-5, read-out: Log10 TGI (converted)
[2] = read-out: Log10 GI50 (converted)
[3] = read-out: Log10 TGI (converted)

## OCc1ccc(-c2ccc(-c3ccc(CO)s3)[se]2)s1 [compound 675343]
M14; M14, read-out: Log10 GI50 (converted)
  GI50: > 100 µM
M14; M14, read-out: Log10 TGI (converted)
  IC (TGI): > 100 µM
SN12C; [2]
  GI50: > 100 µM
SN12C; [3]
  IC (TGI): > 100 µM
DU-145; DU-145, read-out: Log10 GI50 (converted)
  GI50: > 100 µM
DU-145; DU-145, read-out: Log10 TGI (converted)
  IC (TGI): > 100 µM
HCT-15; HCT-15, read-out: Log10 GI50 (converted)
  GI50: > 100 µM
HCT-15; HCT-15, read-out: Log10 TGI (converted)
  IC (TGI): > 100 µM
NCI-H23; NCI-H23, read-out: Log10 GI50 (converted)
  GI50: > 100 µM
NCI-H23; NCI-H23, read-out: Log10 TGI (converted)
  IC (TGI): > 100 µM
SF-268; SF-268, read-out: Log10 GI50 (converted)
  GI50: > 100 µM
SF-268; SF-268, read-out: Log10 TGI (converted)
  IC (TGI): > 100 µM
CCRF-CEM; [2]
  GI50: 22.4 µM
CCRF-CEM; [3]
  IC (TGI): 60.3 µM
CAKI-1; CAKI-1, read-out: Log10 GI50 (converted)
  GI50: < 0.01 µM
CAKI-1; CAKI-1, read-out: Log10 TGI (converted)
  IC (TGI): < 0.01 µM
HOP-62; HOP-62, read-out: Log10 GI50 (converted)
  GI50: > 100 µM
HOP-62; HOP-62, read-out: Log10 TGI (converted)
  IC (TGI): > 100 µM
[1]
  Log10 GI50, Delta: −5.36
  Log10 LC50, Delta: −4.06
  Log10 TGI, Delta: −4.41
  Log10 TGI, Range: 3.59
MDA-N; [2]
  GI50: > 100 µM
MDA-N; [3]
  IC (TGI): > 100 µM
HL-60(TB); [2]
  GI50: 61.7 µM
HL-60(TB); read-out: Log10 TGI
  IC (TGI): > 100 µM
HT29
  IC (TGI): > 100 µM
COLO 205; COLO 205, read-out: Log10 GI50 (converted)
  GI50: < 0.01 µM
COLO 205; COLO 205, read-out: Log10 TGI (converted)
  IC (TGI): 1.05 µM
T-47D; [2]
  GI50: 0.724 µM
T-47D; [3]
  IC (TGI): > 100 µM
SK-MEL-2; SK-MEL-2, read-out: Log10 GI50 (converted)
  GI50: > 100 µM
SK-MEL-2; SK-MEL-2, read-out: Log10 TGI (converted)
  IC (TGI): > 100 µM
U251; U-251, U251, read-out: Log10 GI50 (converted)
  GI50: < 0.01 µM
U251; U-251, U251, read-out: Log10 TGI (converted)
  IC (TGI): > 100 µM
MDA-MB-231/ATCC; [2]
  GI50: > 100 µM
MDA-MB-231/ATCC; [3]
  IC (TGI): > 100 µM
SK-OV-3
  GI50: > 100 µM
HCC-2998; HCC-2998, read-out: Log10 GI50 (converted)
  GI50: < 0.01 µM
HCC-2998; HCC-2998, read-out: Log10 TGI (converted)
  IC (TGI): 3.39 µM
MCF7; MCF7, read-out: Log10 GI50 (converted)
  GI50: < 0.01 µM
MCF7; MCF7, read-out: Log10 TGI (converted)
  IC (TGI): > 100 µM
UACC-62; UACC-62, read-out: Log10 GI50 (converted)
  GI50: < 0.01 µM
UACC-62; UACC-62, read-out: Log10 TGI (converted)
  IC (TGI): > 100 µM
SW-620; SW-620, read-out: Log10 GI50 (converted)
  GI50: < 0.01 µM
SW-620; SW-620, read-out: Log10 TGI (converted)
  IC (TGI): > 100 µM
MOLT-4; MOLT-4, read-out: Log10 GI50 (converted)
  GI50: 28.8 µM
MOLT-4; MOLT-4, read-out: Log10 TGI (converted)
  IC (TGI): 87.1 µM
HCT-116; HCT-116, read-out: Log10 GI50 (converted)
  GI50: < 0.01 µM
HCT-116; HCT-116, read-out: Log10 TGI (converted)
  IC (TGI): > 100 µM
RXF-393; RXF-393, read-out: Log10 GI50 (converted)
  GI50: 20.9 µM
RXF-393; RXF-393, read-out: Log10 TGI (converted)
  IC (TGI): > 100 µM
NCI-H226; NCI-H226, read-out: Log10 GI50 (converted)
  GI50: < 0.01 µM
NCI-H226; NCI-H226, read-out: Log10 TGI (converted)
  IC (TGI): 0.0724 µM
SK-MEL-5
  IC (TGI): > 100 µM

From patent US20040063662A1, “Selenophene anti-tumor agents” (priority 1996, published 2004)
